Reference: patent publication US9725445B2, “Cycloalkyl nitrile pyrazolo pyridones as Janus kinase inhibitors” (Merck Sharp & Dohme Corp., priority 2013, dated 2017)
pIC50: −log10 of the molar value.

Columns and labels:
JAK2 = JAK2 (Homo sapiens (Human), UniProt O60674); test: Jak biochemical HTRF assay, JAK2; conditions: HTRF biochemical assay, recombinant GST-tagged catalytic domain; read-out: JAK2 IC50
JAK1 = JAK1 (Homo sapiens (Human), UniProt P23458); test: Jak biochemical HTRF assay, JAK1; conditions: HTRF biochemical assay, recombinant GST-tagged catalytic domain; read-out: JAK1 IC50
JAK1, sequence (P23458 875-1153): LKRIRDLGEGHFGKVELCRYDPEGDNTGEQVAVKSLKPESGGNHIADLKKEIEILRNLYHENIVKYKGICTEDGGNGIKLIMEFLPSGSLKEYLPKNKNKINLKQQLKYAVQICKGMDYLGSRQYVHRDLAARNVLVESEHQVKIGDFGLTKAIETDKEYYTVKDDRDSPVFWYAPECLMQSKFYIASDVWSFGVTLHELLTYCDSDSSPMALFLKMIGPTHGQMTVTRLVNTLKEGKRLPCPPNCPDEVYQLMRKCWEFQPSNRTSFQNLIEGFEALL

JAK2, sequence (O60674 849-1124): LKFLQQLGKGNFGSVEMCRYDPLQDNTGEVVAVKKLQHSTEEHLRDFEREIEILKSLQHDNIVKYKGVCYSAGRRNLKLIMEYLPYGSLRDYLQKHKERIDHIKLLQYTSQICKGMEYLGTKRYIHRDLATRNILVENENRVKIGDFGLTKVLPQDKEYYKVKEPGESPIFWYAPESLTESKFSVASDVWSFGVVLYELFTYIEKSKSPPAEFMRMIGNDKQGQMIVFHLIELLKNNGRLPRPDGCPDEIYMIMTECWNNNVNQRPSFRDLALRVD

| SMILES | pIC50 (JAK2) | pIC50 (JAK1) |
| --- | --- | --- |
| CC(C)(C)S(=O)(=O)c1ccc(Nc2nn([C@H]3CCC[C@@H]3C#N)c3cc[nH]c(=O)c23)cc1 [Example 3-106, (1S,2S)-2-(3-{[4-(tert-butylsulfonyl)phenyl]amino}-4-oxo-4,5-dihydro-1H-pyrazolo[4,3-c]pyridin-1-yl)cyclopentanecarbonitrile] | 9.44 | 9.92 |
| N#C[C@H]1CCCC[C@@H]1n1nc(Nc2ccc3c(c2)CN(C2CCCC2)C3=O)c2c(=O)[nH]ccc21 [Example 3-154, (1S,2S)-2-{3-[(2-cyclopentyl-1-oxo-2,3-dihydro-1H-isoindol-5-yl)amino]-4-oxo-4,5-dihydro-1H-pyrazolo[4,3-c]pyridin-1-yl}cyclohexanecarbonitrile] | 9.35 | 10.25 |
| CC(C)(C)[S@@+]([O-])N[C@@H](c1cccc(Nc2nn([C@H]3CCCC[C@@H]3C#N)c3cc[nH]c(=O)c23)c1)C(F)(F)F [Example 3-41, N-{(1S)-1-[3-({1-[(1S,2S)-2-cyanocyclohexyl]-4-oxo-4,5-dihydro-1H-pyrazolo[4,3-c]pyridin-3-yl}amino)phenyl]-2,2,2-trifluoroethyl}-2-methylpropane-2-sulfinamide] | 7.54 | 8.80 |

Other lines, results leading:

| pIC50 (JAK2) | pIC50 (JAK1) | SMILES |
| --- | --- | --- |
| 8.92 | 9.21 | CC(C)C(c1ccc(Nc2nn([C@H]3CCCC[C@@H]3C#N)c3cc[nH]c(=O)c23)cc1)n1cc(C(=O)OC(C)(C)C)nn1 (single isomer, unassigned) [Example 15-57, tert-butyl 1-{(1S or 1R)-1-[4-({1-[(1S,2S)-2-cyanocyclohexyl]-4-oxo-4,5-dihydro-1H-pyrazolo[4,3-c]pyridin-3-yl}amino)phenyl]-2-methylpropyl}-1H-1,2,3-triazole-4-carboxylate] |
| 7.74 | 7.72 | CN(C(C)(C)C)S(=O)(=O)c1ccc(Nc2nn([C@H]3CCCCC[C@@H]3C#N)c3cc[nH]c(=O)c23)cc1 (single isomer, unassigned) [Example 15-48, N-tert-butyl-4-({1-[(1S,2S or 1R,2R)-2-cyanocycloheptyl]-4-oxo-4,5-dihydro-1H-pyrazolo[4,3-c]pyridin-3-yl}amino)-N-methylbenzenesulfonamide] |
| 9.20 | 9.60 | N#C[C@H]1CCCC[C@@H]1n1nc(Nc2ccc3c(c2)CNC3C(F)F)c2c(=O)[nH]ccc21 (single isomer, unassigned) [Example 15-28, (1S,2S)-2-(3-{[(1S or 1R)-1-(difluoromethyl)-2,3-dihydro-1H-isoindol-5-yl]amino}-4-oxo-4,5-dihydro-1H-pyrazolo[4,3-c]pyridin-1-yl)cyclohexanecarbonitrile] |
| 8.92 | 9.66 | CC(C)(C)OC(=O)[C@H]1CC[C@@H](N2Cc3cc(Nc4nn([C@H]5CCCC[C@@H]5C#N)c5cc[nH]c(=O)c45)ccc3S2(=O)=O)CC1 [Example 15-43, (1S,4S)-tert-butyl 4-(5-((1-((1S,2S)-2-cyanocyclohexyl)-4-oxo-4,5-dihydro-1H-pyrazolo[4,3-c]pyridin-3-yl)amino)-1,1-dioxidobenzo[d]isothiazol-2(3H)-yl)cyclohexanecarboxylate] |
| 8.27 | 8.89 | CC1c2ccc(Nc3nn([C@H]4CCCC[C@@H]4C#N)c4cc[nH]c(=O)c34)cc2CN1C(=O)OC(C)(C)C (stereo partly drawn) [Example 18-1, tert-Butyl 5-((1-((1S,2S)-2-cyanocyclohexyl)-4-oxo-4,5-dihydro-1H-pyrazolo[4,3-c]pyridin-3-yl)amino)-1-methylisoindoline-2-carboxylate] |
| 8.54 | 9.00 | CS(=O)(=O)c1ccc(Nc2nn([C@H]3CCCC[C@@H]3C#N)c3cc[nH]c(=O)c23)cc1CN [Example 6-4, (1S,2S)-2-(3-((3-(aminomethyl)-4-(methylsulfonyl)phenyl)amino)-4-oxo-4,5-dihydro-1H-pyrazolo[4,3-c]pyridin-1-yl)cyclohexanecarbonitrile] |
